According to patent US20250044306A1, “Methods for Determining Opioid Responsiveness in the Treatment of Pain” (priority 2021, published 2025):
Values joined by “and” are separate entries in the source; they are usually repeats but may differ in a detail not shown here. Equal entries are not always repeated.

Key:
[1] = tested on: thermal hyperalgesia in SCI animals; assay: Tail flick thermal nociception in contusion SCI rats; format: in vivo, Long-Evans rats; conditions: for % analgesia (maximum possible effect, MPE), tail flick latency: drug alone, s.c. 30 mins prior to testing, morphine 2 mg/kg; for % Analgesia scores, injection of drug alone, compared to morphine alone (52.01%) / % analgesia (MPE), tail flick latency, drug added to morphine: rat, in vivo
[2] = tested on: thermal hyperalgesia in SCI animals; conditions: rodent SCI model; Rodgers et al. 2019, 2020; cited from earlier work
patients with pain = conditions: clinical study using morphine to treat pain; cited from earlier work
DIR receptor = DIR receptor (Homo sapiens, UniProt P21728); conditions: Millan, Maiofiss et al. 2002; Chen, Collins et al. 2008; cited from earlier work
[3] = morphine nonresponsive SCI animals (n=18), pramipexole 0.1 mg/kg, SCH 39166 0.1 mg/kg

Sequence of DIR receptor (P21728 whole entry): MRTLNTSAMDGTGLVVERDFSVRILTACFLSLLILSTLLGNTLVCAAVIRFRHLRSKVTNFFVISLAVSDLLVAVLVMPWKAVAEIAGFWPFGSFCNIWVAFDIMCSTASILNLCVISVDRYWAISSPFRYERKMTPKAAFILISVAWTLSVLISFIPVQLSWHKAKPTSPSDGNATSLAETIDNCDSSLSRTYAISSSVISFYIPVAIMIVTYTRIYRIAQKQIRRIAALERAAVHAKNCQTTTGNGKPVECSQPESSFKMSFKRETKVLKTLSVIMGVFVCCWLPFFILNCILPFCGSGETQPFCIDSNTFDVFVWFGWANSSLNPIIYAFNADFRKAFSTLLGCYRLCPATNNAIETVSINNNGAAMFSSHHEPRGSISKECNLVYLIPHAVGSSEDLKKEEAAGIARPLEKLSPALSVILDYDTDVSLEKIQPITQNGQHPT

Row | SMILES | % analgesia (maximum possible effect, MPE), tail flick latency [1, 3] | % Analgesia scores, injection of drug alone, compared to morphine alone (52.01%) [1] | % analgesia (MPE), tail flick latency, drug added to morphine [1] | Share of SCI animals in which an acute injection of morphine provided analgesia ([1]; morphine 2 mg/kg s.c., n=8 of 26 SCI animals) | % analgesia (maximum possible effect, MPE), tail flick latency ([1]; morphine responsive SCI animals (n=8)) | Share of SCI animals responsive to morphine (earlier studies) [2] | Patients who continued morphine treatment for pain management for more than 12 months (patients with pain) | Patients who failed to respond to morphine treatment (patients with pain) | Binding to the DIR receptor (DIR receptor)
1 | CCCN[C@H]1CCc2nc(N)sc2C1 [pramipexole] | −7.27%±11.06 | 12.87%±15.84 | 96.98%±1.985 and 64.38%±10.37 |  |  |  |  |  | 
2 | CN1CC[C@]23c4c5ccc(O)c4O[C@H]2[C@@H](O)C=C[C@H]3[C@H]1C5 [morphine] | −24.48%±6.241 |  |  | one third | 52.01%±3.494 | ⅓ and one third | 15% | more than 50% | neither morphine nor pramipexole bind to the DIR receptor
3 | CN1CCc2cc(Cl)c(O)cc2[C@H]2c3ccccc3CC[C@@H]21 [SCH 39166] | −37.5%±6.99 | −21.07%±10.46 | 18.79%±13.547 and 29.56%+11.51 |  |  |  |  |  | 
